From patent US20250163047A1, “HETEROCYCLIC COMPOUNDS, COMPOSITIONS THEREOF, AND METHODS OF TREATMENT THEREWITH” (BeiGene, Ltd., priority 2022, published 2025)

Legend:
Cbl-b (aa36-427) = molecular target: T1, Cbl-b (aa36-427) (Homo sapiens, UniProt Q13191); test: Co-expressed Cbl-b with BirA biochemical assay (CBLB/E2-Ub binding, HTRF); conditions: 0.6 nM Cbl-b co-expressed with BirA, HTRF; read-out: co-express CBLB/E2-Ub-binding assay IC50
T1 construct: Cbl-b (aa36-427, in-house); made in house
Text: (§1) The assay in the absence of a Cbl-b/Cbl inhibitor, where phosphorylation of Cbl-b/Cbl by the Src kinase allows UbcH5B-Ub to bind to Cbl-b/Cbl and brings the Bodipy-Fluorescein tagged ubiquitin in proximity to the streptavidin-terbium bound to the N-terminal biotinylated Avi-tagged Cbl-b/Cbl. […] The lack of a FRET signal indicates Cbl-b/Cbl is inhibited by the Cbl-b/Cbl inhibitor.

Cbl (aa49-434) = molecular target: T2, Cbl (aa49-434) (Homo sapiens, UniProt P22681); test: Co-expressed Cbl with BirA biochemical assay (CBL/E2-Ub binding, HTRF); conditions: 0.6 nM Cbl co-expressed with BirA, read-out: co-express CBL/E2-Ub-binding assay IC50
T2 construct: Cbl (aa49-434, in-house); made in house
T2 sequence (P22681 49-434): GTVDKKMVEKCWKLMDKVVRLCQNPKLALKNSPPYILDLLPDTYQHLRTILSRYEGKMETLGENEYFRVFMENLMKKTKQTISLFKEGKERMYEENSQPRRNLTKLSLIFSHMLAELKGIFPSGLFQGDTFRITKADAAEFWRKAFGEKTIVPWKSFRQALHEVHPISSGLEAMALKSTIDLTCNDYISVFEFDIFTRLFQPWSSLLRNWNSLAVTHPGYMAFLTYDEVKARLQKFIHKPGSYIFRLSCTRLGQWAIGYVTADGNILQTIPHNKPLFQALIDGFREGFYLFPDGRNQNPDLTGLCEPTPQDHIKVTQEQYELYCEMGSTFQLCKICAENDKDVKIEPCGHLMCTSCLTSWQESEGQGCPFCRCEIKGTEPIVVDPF
Text: as §1

T1 sequence (Q13191 36-427): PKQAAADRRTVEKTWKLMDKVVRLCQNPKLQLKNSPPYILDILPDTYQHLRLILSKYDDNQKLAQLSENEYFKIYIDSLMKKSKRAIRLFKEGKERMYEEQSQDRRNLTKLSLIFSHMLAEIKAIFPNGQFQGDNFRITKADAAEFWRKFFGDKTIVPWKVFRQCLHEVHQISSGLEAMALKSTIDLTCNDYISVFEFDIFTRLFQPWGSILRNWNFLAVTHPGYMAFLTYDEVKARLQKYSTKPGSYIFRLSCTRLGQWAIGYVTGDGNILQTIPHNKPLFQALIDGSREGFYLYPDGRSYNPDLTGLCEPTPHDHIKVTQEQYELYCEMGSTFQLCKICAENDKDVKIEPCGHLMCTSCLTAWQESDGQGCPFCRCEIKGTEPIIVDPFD

IC50 (Cbl-b (aa36-427)) [nM] | IC50 (Cbl (aa49-434)) [nM] | SMILES
1.8 | 21 | C[C@H]1CCCN(Cc2cc(C(=O)Nc3cccc([C@]4(c5nncn5C)C[C@@H](CC#N)C4)c3)nc3cn[nH]c23)C1 [Compound B8, N-(3-((1s,3R)-3-(cyanomethyl)-1-(4-methyl-4H-1,2,4-triazol-3-yl)cyclobutyl)phenyl)-7-(((S)-3-methylpiperidin-1-yl)methyl)-1H-pyrazolo[4,3-b]pyridine-5-carboxamide]
1.2 | 11.1 | Cn1cnnc1[C@]1(c2cccc(NC(=O)c3cc(CNC4(C)CCC4)cn4c(F)cnc34)c2)C[C@H](CC#N)C1 [Compound A61, N-(3-((1s, 3s)-3-(cyanomethyl)-1-(4-methyl-4H-1,2,4-triazol-3-yl)cyclobutyl)phenyl)-3-fluoro-6-(((1-methylcyclobutyl)amino)methyl)imidazo[1,2-a]pyridine-8-carboxamide]
1.5 | 4.1 | Cc1cnc2c(C(=O)Nc3cncc([C@]4(c5nncn5C)C[C@@H](C)C4)c3)cc(CNCC3CCC3)cn12 [Compound A56, 6-{[(cyclobutylmethyl)amino]methyl}-3-methyl-N-{5-[(1r, 3s)-3-methyl-1-(4-methyl-1,2,4-triazol-3-yl)cyclobutyl]pyridin-3-yl}imidazo[1,2-a]pyridine-8-carboxamide]
1.3 | 15 | Cn1ccc2nc(C(=O)Nc3cccc([C@]4(c5nncn5C)C[C@@H](CC#N)C4)c3)cc(CNC3(C)CC3)c21 [Compound B57, N-(3-((1s, 3s)-3-(cyanomethyl)-1-(4-methyl-4H-1,2,4-triazol-3-yl)cyclobutyl)phenyl)-1-methyl-7-(((1-methylcyclopropyl)amino)methyl)-1H-pyrrolo[3,2-b]pyridine-5-carboxamide]
2.56 | 19.7 | C[C@H]1CCCN(Cc2cc(C(=O)Nc3cccc(C4(c5nncn5C)CC(CC#N)C4)c3)nc3c2CCC3(C)C)C1 (stereo partly drawn) [Compound C7, (S)—N-(3-(3-(cyanomethyl)-1-(4-methyl-4H-1,2,4-triazol-3-yl)cyclobutyl)phenyl)-7,7-dimethyl-4-((3-methylpiperidin-1-yl)methyl)-6,7-dihydro-5H-cyclopenta[b]pyridine-2-carboxamide]
1.5 | 1.1 | C[C@H](NCc1cc(C(=O)Nc2cccc([C@]3(Cc4nncn4C)C[C@@H](C#N)C3)c2)c2nccn2c1)C1CCCC1 [Compound A33, N-(3-((1r,3S)-3-cyano-1-((4-methyl-4H-1,2,4-triazol-3-yl)methyl)cyclobutyl)phenyl)-6-((((S)-1-cyclopentylethyl)amino)methyl)imidazo[1,2-a]pyridine-8-carboxamide]
45.3 | 185 | C[C@H]1CCCN(Cc2cc(C(=O)Nc3cccc([C@]4(c5nncn5C)C[C@@H](CC#N)C4)c3)n3ncnc3c2)C1 [Compound A14, N-(3-((1s,3R)-3-(cyanomethyl)-1-(4-methyl-4H-1,2,4-triazol-3-yl)cyclobutyl)phenyl)-7-(((S)-3-methylpiperidin-1-yl)methyl)-[1,2,4]triazolo[1,5-a]pyridine-5-carboxamide]
1.1 | 9.2 | C[C@H]1CCCN(Cc2cc(C(=O)Nc3cccc([C@]4(c5nncn5C)C[C@@H](CC#N)C4)c3)nc3c2NCC3(C)C)C1 [Compound C13, 3,3-dimethyl-7-{[(3S)-3-methylpiperidin-1-yl]methyl}-N-{3-[(1s, 3s)-3-(cyanomethyl)-1-(4-methyl-1,2,4-triazol-3-yl)cyclobutyl]phenyl}-1H,2H-pyrrolo[3,2-b]pyridine-5-carboxamide]
0.8 | 2.7 | C[C@@H]1CN(Cc2cc(C(=O)Nc3cccc([C@]4(Cc5nncn5C)C[C@@H](C#N)C4)c3)c3nccn3c2)CC[C@@H]1F [Compound A48, N-(3-((1r,3R)-3-cyano-1-((4-methyl-4H-1,2,4-triazol-3-yl)methyl)cyclobutyl)phenyl)-6-(((3R,4S)-4-fluoro-3-methylpiperidin-1-yl)methyl)imidazo[1,2-a]pyridine-8-carboxamide]
1.1 | 3.6 | Cn1cnnc1[C@]1(c2cccc(NC(=O)c3cc(CNCC4CCC4)cn4ccnc34)c2)C[C@H](C)C1 [Compound A22, 6-(((cyclobutylmethyl)amino)methyl)-N-(3-((1s, 3s)-3-methyl-1-(4-methyl-4H-1,2,4-triazol-3-yl)cyclobutyl)phenyl)imidazo[1,2-a]pyridine-8-carboxamide]
2.2 | 6.1 | CC[C@H](C)NCc1cc(C(=O)Nc2cncc([C@]3(c4nncn4C)C[C@@H](C)C3)c2)nc2cc[nH]c12 [Compound B47, 7-((((S)-sec-butyl)amino)methyl)-N-(5-((1s,3R)-3-methyl-1-(4-methyl-4H-1,2,4-triazol-3-yl)cyclobutyl)pyridin-3-yl)-1H-pyrrolo[3,2-b]pyridine-5-carboxamide]
2 | 15.6 | Cc1c[nH]c2c(CN3CCC[C@H](C)C3)cc(C(=O)Nc3cccc([C@]4(c5nncn5C)C[C@@H](CC#N)C4)c3)nc12 [Compound B10, N-(3-((1s,3R)-3-(cyanomethyl)-1-(4-methyl-4H-1,2,4-triazol-3-yl)cyclobutyl)phenyl)-3-methyl-7-(((S)-3-methylpiperidin-1-yl)methyl)-1H-pyrrolo[3,2-b]pyridine-5-carboxamide]
2 | 13 | Cc1cnc2c(C(=O)Nc3cncc([C@]4(c5nncn5C)C[C@@H](C)C4)c3)cc(CNC3(C)CCC3)cn12 [Compound A80, 3-methyl-N-(5-((1s, 3s)-3-methyl-1-(4-methyl-4H-1,2,4-triazol-3-yl)cyclobutyl)pyridin-3-yl)-6-(((1-methylcyclobutyl)amino)methyl)imidazo[1,2-a]pyridine-8-carboxamide]
6.9 | 79 | Cn1cnnc1[C@]1(c2cccc(NC(=O)c3cc(CNCC4CCC(F)(F)CC4)c4c(n3)C(C)(C)CO4)c2)C[C@H](CC#N)C1 [Compound C20, N-(3-((1s, 3s)-3-(cyanomethyl)-1-(4-methyl-4H-1,2,4-triazol-3-yl)cyclobutyl)phenyl)-7-((((4,4-difluorocyclohexyl)methyl)amino)methyl)-3,3-dimethyl-2,3-dihydrofuro[3,2-b]pyridine-5-carboxamide]
1.22 | 3.84 | Cn1cnnc1[C@]1(c2cccc(NC(=O)c3cc(CN[C@H]4CCC(F)(F)C4)c4[nH]ccc4n3)c2)C[C@H](CC#N)C1 [Compound B17, N-(3-((1s,3S)-3-(cyanomethyl)-1-(4-methyl-4H-1,2,4-triazol-3-yl)cyclobutyl)phenyl)-7-((((R)-3,3-difluorocyclopentyl)amino)methyl)-1H-pyrrolo[3,2-b]pyridine-5-carboxamide]
1.5 | 4.3 | Cn1cnnc1[C@]1(c2cccc(NC(=O)c3cc(CNCC4CCCC4)cn4c(F)cnc34)c2)C[C@H](C)C1 [Compound A51, 6-(((cyclopentylmethyl)amino)methyl)-3-fluoro-N-(3-((1s, 3s)-3-methyl-1-(4-methyl-4H-1,2,4-triazol-3-yl)cyclobutyl)phenyl)imidazo[1,2-a]pyridine-8-carboxamide]
0.9 | 4.7 | Cn1cnnc1[C@]1(c2cccc(NC(=O)c3cc(CN[C@H]4C[C@@H](C)C4)c4[nH]ccc4n3)c2)C[C@H](C)C1 [Compound B33, N-(3-((1s, 3s)-3-methyl-1-(4-methyl-4H-1,2,4-triazol-3-yl)cyclobutyl)phenyl)-7-((((1s, 3s)-3-methylcyclobutyl)amino)methyl)-1H-pyrrolo[3,2-b]pyridine-5-carboxamide]
1.2 | 4.2 | Cn1cnnc1[C@]1(c2cncc(NC(=O)c3cc(CNC4(C)CC4)cn4c(F)cnc34)c2)C[C@H](C)C1 [Compound A74, 3-fluoro-N-(5-((1s, 3s)-3-methyl-1-(4-methyl-4H-1,2,4-triazol-3-yl)cyclobutyl)pyridin-3-yl)-6-(((1-methylcyclopropyl)amino)methyl)imidazo[1,2-a]pyridine-8-carboxamide]
1.4 | 8.8 | Cc1c[nH]c2c(CNC3(C)CC3)cc(C(=O)Nc3cccc([C@]4(c5nncn5C)C[C@@H](CC#N)C4)c3)nc12 [Compound B30, N-(3-((1s, 3s)-3-(cyanomethyl)-1-(4-methyl-4H-1,2,4-triazol-3-yl)cyclobutyl)phenyl)-3-methyl-7-(((1-methylcyclopropyl)amino)methyl)-1H-pyrrolo[3,2-b]pyridine-5-carboxamide]
0.8 | 2.3 | Cn1cnnc1[C@]1(c2cccc(NC(=O)c3cc(CNCC4CCC4)c4ccsc4n3)c2)C[C@H](C)C1 [Compound B41, 4-{[(cyclobutylmethyl)amino]methyl}-N-{3-[(1r, 3s)-3-methyl-1-(4-methyl-1,2,4-triazol-3-yl)cyclobutyl]phenyl}thieno[2,3-b]pyridine-6-carboxamide]
